In patent publication EP4596561A1, “PHOSPHORUS-CONTAINING COMPOUND, PHARMACEUTICAL COMPOSITION AND USE THEREOF” (Suzhou Genhouse Bio Co., Ltd., priority 2022, dated 2024):
Where two headings read alike, the source gives them in different places.

What was measured:
[1] = test system: MSTO-211H (NF2 wide-type); assay: Inhibition of cell proliferation (CellTiter-Lumi); type: cell-based; conditions: Homo sapiens, 72 h + another 72 h treatment
Protocol: (§1) NCI-H2052 (NF2 mutant), NCI-H226 (NF2 mutant), NCI-H2452 (NF2 wide-type), NCI-H28 (NF2 wide-type), and MSTO-211H (NF2 wide-type) cells were cultured in RPMI 1640 complete media.
(§2) The normally growing cells described above were digested with a trypsin cell-digesting solution, centrifuged, counted, and then plated in a 96-well plate at a density of 1000 cells per well. Administration was performed 24 h after the cell plating. Inhibitors at different concentration gradients were added at 10 µL per well, and three replicate wells were set for each concentration point. The starting concentration was 20 µM and diluted 8 times with a 4-fold gradient. A corresponding negative control group treated with 0.1% DMSO was also set up. After 72 h of drug treatment, the cell culture plate to be tested was taken out of the incubator. The culture medium in the 96-well plate was pipetted, and 190 µL of fresh RPMI 1640 complete medium was added. Another administration was performed, and the cells were cultured for another 72 h. The 96-well plate was taken out and allowed to equilibrate at room temperature for 10 min. The medium in the 96-well plate was pipetted, and 200 µL of CellTiter-Lumi™ luminescent cell viability detection solution (mixed with a medium in a ratio of 1:1) was added. After shaking for two minutes, the mixture was reacted at room temperature for 10 min. Then, 150 µL of liquid was pipetted from the transparent 96-well plate and transferred to a white 96-well plate for chemiluminescence reading. The background value was subtracted from the value for each well to calculate the cell survival rate. Survival rate (%) = […]. Sample is the chemiluminescence of the drug-treated group, and Vehicle is the […] of the DMSO control group. A sigmoidal dose-survival rate curve was plotted using a non-linear regression model in the GraphPad Prism 7.0 software, and the IC50 values or GI50 values were calculated.

[2] = test system: NCI-H28 (NF2 wide-type); assay: Inhibition of cell proliferation (CellTiter-Lumi); type: cell-based; conditions: Homo sapiens, 72 h + another 72 h treatment
Protocol: as §1
as §2, with “The medium in the 96-well plate was pipetted, and 200 µL of CellTiter-Lumi™ luminescent cell viability detection solution (mixed with a medium in a ratio of 1:1) was added.” left out

[3] = test system: YAP-TEAD transcription complex; assay: YAP-TEAD reporter gene assay (dual luciferase, stably transfected 293T cells); type: cell-based; conditions: Homo sapiens, HEK-293T
Protocol: YAP-TEAD reporter gene The YAP-TEAD reporter gene assay was performed as follows. Firstly, the 8xGTIIC promoter sequence ([…] GTACTGTTGGTAAA) was constructed into a pGL4.20(luc2-Puro) plasmid, and the TK promoter ([…]) unrelated to the hippo pathway was constructed into a pGL4.78(hRlucCP/Hygro) plasmid, thereby constructing stably transfected 293T cells that can stably and continuously express the transcriptional activity of the YAP-TEAD transcription complex. After selection and identification of individual clones, the clones were grown and maintained in a DMEM medium containing 10% fetal bovine serum, penicillin-streptomycin solution, 1 µg/mL puromycin, and 150 µg/mL hygromycin. To perform reporter gene assays with the compounds to be tested, the well-growing cells described above were plated in a 384-well plate at a cell density of 3000 cells per well, with 90 µL per well. The periphery was sealed with an appropriate amount of PBS to prevent evaporation of water from the peripheral wells. Administration was performed on the next day after the cell plating. The test compounds were added at different concentration gradients, and three replicate wells were set for each concentration point. The compound concentration started at 5 µM and was diluted seven times with a 5-fold gradient. A corresponding negative control group treated with DMSO was also set up. After 24 h of drug treatment, the detection reagents were prepared first. The Dual-Lumi™ Firefly luciferase detection reagent and Dual-Lumi™ Renilla luciferase detection buffer were dissolved and brought to room temperature. […]. According to the amount of 100 µL of Dual-Lumi™ Renilla luciferase detection working solution required for the detection of each sample, an appropriate amount of Dual-Lumi™ Renilla luciferase detection working solution was prepared. […]. The cell culture plate was taken out and allowed to equilibrate at room temperature for 10 min (usually no more than 30 min). Then, 100 µL of Dual-Lumi™ Firefly luciferase detection reagent was added to each well of a 96-well plate (25 µL per well for the 384-well plate), and the mixture was mixed well. The mixture was then incubated at room temperature (about 25 °C) for 10 min to stabilize the luminescent signal, and then chemiluminescence was detected using a multimode microplate reader with a chemiluminescence detection function. Subsequently, the detection of Renilla luciferase began. Firstly, 100 µL of Dual-Lumi™ Renilla luciferase detection working solution was added to each well of a […] (25 µL per well for the 384-well plate), and the mixture was mixed well. The mixture was then incubated at room temperature (about 25 °C) for 10 min to stabilize the luminescent signal. Finally, chemiluminescence was detected using a multimode microplate reader with a chemiluminescence detection function. The obtained data were analyzed using GraphPad Prism 7.0 software. A sigmoidal dose-survival rate curve was plotted using a non-linear regression model, and the IC50 values were calculated.

[4] = test system: NCI-H2452 (NF2 wide-type); assay: Inhibition of cell proliferation (CellTiter-Lumi); type: cell-based; conditions: Homo sapiens, 72 h + another 72 h treatment
Protocol: as §1
as §2, with “The medium in the 96-well plate was pipetted, and 200 µL of CellTiter-Lumi™ luminescent cell viability detection solution (mixed with a medium in a ratio of 1:1) was added.” left out

[5] = Stability test in liver microsomes; type: in vitro ADME; conditions: Human liver microsomes, 0.5 mg/mL, 1.0 µM substrate
Protocol: (§3) Phase I metabolic stability of the test compounds in liver microsomes of CD-1 mice, Sprague-Dawley rats, and humans was assessed.
(§4) The animal and human liver microsomes used in the test system were purchased from Xenotech, Corning, or other qualified suppliers and stored in a freezer at a temperature below -60 °C prior to use. The information of the animal and human liver microsomes used was as follows:
(§5) The test samples and the reference compounds were separately incubated with animal and human liver microsomes at 37±1 °C for a period of incubation time of up to 60 min. The samples were taken out at the indicated time points, and the reaction was stopped with acetonitrile or another organic solvent containing an internal standard. After centrifugation, the resulting supernatants were assayed by the liquid chromatography-tandem mass spectrometry (LC-MS/MS) method.
(§6) Microsomes of each species were diluted into a 2× working solution with a 100 mM potassium phosphate buffer. […]
(§7) Incubation was performed in a 96-well plate. Eight incubation plates were prepared and designated T0, T5, T15, T30, T45, T60, Blank60, and NCF60, respectively. The first 6 plates corresponded to reaction time points of 0 min, 5 min, 15 min, 30 min, 45 min, and 60 min, respectively. No test sample or reference compound was added to the Blank60 plate, and samples were taken after 60 min of incubation. In the NCF60 plate, incubation was performed for 60 min using the potassium phosphate buffer instead of the NADPH regeneration system solution. Three replicates were made for samples in all conditions.
(§8) The microsomes and the test sample or reference compound were mixed, and then the incubation plates Blank60, T5, T15, T30, T45, and T60 except for T0 and NCF60 were placed in a 37 °C water bath for pre-incubation for about 10 min. In the incubation plate T0, a stop solution was first added, followed by the addition of the NADPH regeneration system working solution, and 98 µL of the potassium phosphate buffer was added to each sample well of the incubation plate NCF60 to initiate the reaction. After the pre-incubation of the incubation plates Blank60, T5, T15, T30, T45, and T60 was completed, 98 µL of the NADPH regeneration system working solution was added to each sample well to initiate the reaction. The reaction temperature was 37±1 °C, the final volume of the reaction was 200 µL, and the reaction system included 0.5 mg/mL microsomes, 1.0 µM substrate, 1 mM NADP, 6 mM ISO, and 1 unit/mL IDH.
(§9) At 5 min, 15 min, 30 min, 45 min, and 60 min, a cold stop solution containing an internal standard was added to the reaction plate to stop the reaction.
(§10) All the reaction plates after the reaction was stopped were shaken well and centrifuged at 3220× g at 4 °C for 20 min. After the supernatant was diluted at a certain ratio, LC-MS/MS analysis was performed.
(§11) Sample analysis was performed by the liquid chromatography-tandem mass spectrometry (LC-MS/MS) method without standard curves and quality control samples. Semi-quantitative determination was performed according to the ratio of the analyte peak area to the internal standard peak area. The retention times of the analyte and internal standard, the chromatogram acquisition, and chromatogram integration were processed using the Analyst software (Sciex, Framingham, Massachusetts, USA).
(§12) According to the well stir model, the hepatic intrinsic clearance and hepatic clearance can be converted through the following formula. CL(liver) = (CLint(liver)×Qh)/(CLint(liver)+Qh) [formula]

[6] = Pharmacokinetic test in mice (low dose); type: in vivo, Balb/c mice; conditions: mouse, in vivo, mice; for AUC(0-t): read-out: AUClast; for half-life: read-out: T1/2 (converted)
Protocol: The compounds of the present disclosure were administered to Balb/c mice by single intravenous injection and oral gavage, and the plasma of the mice at each time point was collected. The concentration of the compounds to be tested in BALB/C plasma was detected using the LC-MS/MS analysis method, and pharmacokinetic analysis was performed.
The mixture was vortexed, shaken, and ultrasonicated. The remaining volume of 25% sulfobutylether-β-cyclodextrin (sterilized) was added to prepare the final concentration solution or suspension.
Intravenous injection formulations will be directly administered in animal experiments without filtration. The IV drug preparation vials were disinfected in an infrared sterilization cabinet one day in advance.
Intravenous injection: Administration was performed via the tail vein. After the needle was inserted, the syringe was slowly […].
Gavage: Gavage needle and syringe of an appropriate type were selected. The gavage needle was inserted from the root of the tongue into the esophagus until it reached near the cardia of the stomach, then the drug formulation was injected, and the gavage needle was withdrawn. When disposable plastic gavage needles were used, one needle was used for each group.
At each time point, 60 µL of whole blood was collected from the submandibular vein or tail vein (except for the IV group). The blood sample was added to a pre-cooled anticoagulant blood collection tube containing anticoagulant EDTA-K2 (1 µL, 15% EDTA-K2 solution), placed on wet ice, and centrifuged (3000 g, 4 °C, 10 min) within 1 h. The plasma was immediately collected after centrifugation, transferred to an EP tube, and stored at -90 °C to -60 °C.
Plasma concentration detection: A developed LC-MS/MS method was used to detect the compounds in plasma.
The plasma concentration-time data were analyzed using a non-compartmental model in the Phoenix® WinNonlin® (Version 8.2, Pharsight, Mountain View, CA).

[7] = Stability test in liver microsomes; type: in vitro ADME, SD rat; conditions: rat liver microsomes, 0.5 mg/mL, 1.0 µM substrate
Protocol: as §3, §4, §5, §6, §7, §8, §9, §10, §11, §12

[8] = Stability test in liver microsomes; type: in vitro ADME, CD-1 mouse; conditions: mouse liver microsomes, 0.5 mg/mL, 1.0 µM substrate
Protocol: as §3, §4, §5, §6, §7, §8, §9, §10, §11, §12

[9] = 293T reporter cells, 24 h of drug treatment, read-out: IC50

Row | Compound | IC50 [1] | IC50 [2] | IC50 [3, 9] | IC50 [4] | further results
1 | CP(C)(=O)c1cnc(Nc2ccc(C(F)(F)F)cc2)c(-n2cc(C(F)(F)F)cn2)c1 [Example 20] | > 1250 nM | > 20000 nM | 439 nM | – | –
2 | CP(C)(=O)c1ccc2c(c1)c1nccnc1n2-c1ccc(C(F)(F)F)cc1 [Example 19] | 628 nM | > 5000 nM | – | > 5000 nM | –
3 | Cn1cc2c3cc(P(C)(C)=O)ccc3n(-c3ccc(C(F)(F)F)cc3)c2n1 [Example 16] | – | – | – | – | half-life at 1 µM [5]: > 2.42 h; MRT ([6]; IV 2 mg/kg): 3.6 h; AUC(0-t) ([6]; IV 2 mg/kg): 5.44 µM·h; clearance ([6]; IV 2 mg/kg, read-out: Cl (converted)): 13.3 mL/min/kg; half-life ([6]; IV 2 mg/kg): 2.7 h; MRT ([6]; PO 10 mg/kg): 5.3 h; bioavailability ([6]; PO 10 mg/kg vs IV 2 mg/kg, read-out: F%): 206%; AUC(0-t) ([6]; PO 10 mg/kg): 63.5 µM·h; Cmax ([6]; PO 10 mg/kg, read-out: Cmax): 7.17 µM; half-life ([6]; PO 10 mg/kg): 3.1 h; half-life at 1 µM [7]: > 2.42 h; IC50 ([3]; 24 h): 31.8 nM; half-life at 1 µM [8]: > 2.42 h
4 | Cn1cnc(-c2cc(P(C)(C)=O)ccc2Nc2ccc(C(F)(F)F)cn2)c1 [Example 13] | > 20000 nM | > 5000 nM | 344 nM | > 20000 nM | –
5 | CP(C)(=O)c1cnc(Nc2ccc(C(F)(F)F)cc2)c(-n2cccn2)c1 [Example 18] | > 1250 nM | > 20000 nM | – | > 1250 nM | –
